Laboratory results as given in ChEMBL document CHEMBL3784934, “N-Alkylpyrido[1',2':1,5]pyrazolo-[4,3-d]pyrimidin-4-amines: A new series of negative allosteric modulators of mGlu1/5 with CNS exposure in rodents” (Bioorg Med Chem Lett, 2016).
Calls of active or inactive are those of the source. The calls are words filed in the database; no cut-off is given here.

How the values were obtained:
[1] = target: Metabotropic glutamate receptor 1 (Rattus norvegicus) (UniProt P23385); test: Negative allosteric modulation of rat mGluR1 expressed in HEK293 cells assessed as calcium mobilization at 30 uM by calcium mobilization assay relative to 100 uM glutamate; type: functional, cell-based
Metabotropic glutamate receptor 1 (Rattus norvegicus), sequence (P23385 19-1199 limits assumed): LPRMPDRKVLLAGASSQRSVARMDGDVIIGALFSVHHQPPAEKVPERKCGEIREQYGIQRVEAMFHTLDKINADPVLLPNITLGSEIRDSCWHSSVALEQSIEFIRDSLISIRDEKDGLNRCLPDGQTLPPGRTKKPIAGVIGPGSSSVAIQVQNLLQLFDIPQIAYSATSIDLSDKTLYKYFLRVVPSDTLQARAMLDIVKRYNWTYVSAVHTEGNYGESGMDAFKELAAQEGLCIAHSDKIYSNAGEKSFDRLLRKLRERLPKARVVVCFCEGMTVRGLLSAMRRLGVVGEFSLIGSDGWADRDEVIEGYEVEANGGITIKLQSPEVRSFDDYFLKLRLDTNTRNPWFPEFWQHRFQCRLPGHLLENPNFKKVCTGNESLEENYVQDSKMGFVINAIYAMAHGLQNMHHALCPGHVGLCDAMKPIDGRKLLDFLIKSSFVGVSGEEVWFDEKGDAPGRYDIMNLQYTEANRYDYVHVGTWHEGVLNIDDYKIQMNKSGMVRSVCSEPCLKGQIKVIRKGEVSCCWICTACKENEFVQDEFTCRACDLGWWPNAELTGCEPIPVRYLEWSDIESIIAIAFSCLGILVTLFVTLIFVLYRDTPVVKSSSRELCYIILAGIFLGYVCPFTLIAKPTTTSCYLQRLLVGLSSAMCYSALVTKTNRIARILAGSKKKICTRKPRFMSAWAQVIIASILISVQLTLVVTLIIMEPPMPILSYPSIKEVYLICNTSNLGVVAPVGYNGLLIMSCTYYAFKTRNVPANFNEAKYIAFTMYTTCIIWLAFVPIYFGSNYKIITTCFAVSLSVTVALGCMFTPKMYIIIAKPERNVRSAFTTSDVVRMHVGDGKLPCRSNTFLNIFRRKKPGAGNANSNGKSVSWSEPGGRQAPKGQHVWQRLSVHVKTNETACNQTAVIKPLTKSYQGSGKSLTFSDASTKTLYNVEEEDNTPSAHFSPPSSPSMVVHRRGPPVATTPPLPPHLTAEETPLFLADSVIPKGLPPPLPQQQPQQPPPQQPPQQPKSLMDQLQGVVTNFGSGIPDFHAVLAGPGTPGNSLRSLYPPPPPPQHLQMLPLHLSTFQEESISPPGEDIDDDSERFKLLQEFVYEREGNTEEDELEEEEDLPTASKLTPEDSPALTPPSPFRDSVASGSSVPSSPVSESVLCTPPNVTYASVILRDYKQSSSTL

[2] = target: Metabotropic glutamate receptor 1 (Rattus norvegicus, UniProt P23385); test: Negative allosteric modulation of rat mGluR1 expressed in HEK293 cells assessed as inhibition of glutamate induced calcium mobilization by calcium mobilization assay; type: functional, cell-based
Metabotropic glutamate receptor 1, sequence (P23385 whole entry): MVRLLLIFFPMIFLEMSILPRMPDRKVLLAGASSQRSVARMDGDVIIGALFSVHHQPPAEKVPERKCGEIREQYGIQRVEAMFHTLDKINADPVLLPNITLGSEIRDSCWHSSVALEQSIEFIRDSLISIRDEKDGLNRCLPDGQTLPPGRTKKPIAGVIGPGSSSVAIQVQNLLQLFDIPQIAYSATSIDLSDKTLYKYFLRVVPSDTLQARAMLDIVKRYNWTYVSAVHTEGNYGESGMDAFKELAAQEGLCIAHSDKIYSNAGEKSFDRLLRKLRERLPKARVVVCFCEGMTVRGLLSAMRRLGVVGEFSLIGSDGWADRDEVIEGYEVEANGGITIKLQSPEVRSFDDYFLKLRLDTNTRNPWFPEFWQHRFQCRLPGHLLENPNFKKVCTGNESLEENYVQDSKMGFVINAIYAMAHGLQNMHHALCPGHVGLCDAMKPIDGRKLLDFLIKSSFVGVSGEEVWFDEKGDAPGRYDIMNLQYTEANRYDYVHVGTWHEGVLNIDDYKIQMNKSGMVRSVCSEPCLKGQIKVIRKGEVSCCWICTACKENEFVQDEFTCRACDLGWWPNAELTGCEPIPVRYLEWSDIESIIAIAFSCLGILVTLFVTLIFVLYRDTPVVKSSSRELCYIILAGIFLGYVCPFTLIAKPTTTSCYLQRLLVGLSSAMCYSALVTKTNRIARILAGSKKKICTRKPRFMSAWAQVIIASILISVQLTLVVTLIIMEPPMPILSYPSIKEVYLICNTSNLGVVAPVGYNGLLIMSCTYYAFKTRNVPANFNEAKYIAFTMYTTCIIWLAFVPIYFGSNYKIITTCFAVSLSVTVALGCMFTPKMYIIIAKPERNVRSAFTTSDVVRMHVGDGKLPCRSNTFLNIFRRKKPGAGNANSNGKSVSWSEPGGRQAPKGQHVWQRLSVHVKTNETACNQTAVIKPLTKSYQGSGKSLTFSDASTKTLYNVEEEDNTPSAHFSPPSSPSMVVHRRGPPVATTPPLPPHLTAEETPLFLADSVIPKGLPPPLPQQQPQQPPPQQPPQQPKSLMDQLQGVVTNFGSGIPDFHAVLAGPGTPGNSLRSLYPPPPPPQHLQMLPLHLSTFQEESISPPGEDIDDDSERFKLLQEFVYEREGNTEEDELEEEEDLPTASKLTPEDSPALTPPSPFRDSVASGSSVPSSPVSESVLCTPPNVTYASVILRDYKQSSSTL

[3] = target: Metabotropic glutamate receptor 5 (Rattus norvegicus, UniProt P31424); test: Negative allosteric modulation of rat mGluR5 expressed in HEK293 cells assessed as inhibition of glutamate induced calcium mobilization by calcium mobilization assay; type: functional, cell-based
Metabotropic glutamate receptor 5, sequence (P31424 whole entry): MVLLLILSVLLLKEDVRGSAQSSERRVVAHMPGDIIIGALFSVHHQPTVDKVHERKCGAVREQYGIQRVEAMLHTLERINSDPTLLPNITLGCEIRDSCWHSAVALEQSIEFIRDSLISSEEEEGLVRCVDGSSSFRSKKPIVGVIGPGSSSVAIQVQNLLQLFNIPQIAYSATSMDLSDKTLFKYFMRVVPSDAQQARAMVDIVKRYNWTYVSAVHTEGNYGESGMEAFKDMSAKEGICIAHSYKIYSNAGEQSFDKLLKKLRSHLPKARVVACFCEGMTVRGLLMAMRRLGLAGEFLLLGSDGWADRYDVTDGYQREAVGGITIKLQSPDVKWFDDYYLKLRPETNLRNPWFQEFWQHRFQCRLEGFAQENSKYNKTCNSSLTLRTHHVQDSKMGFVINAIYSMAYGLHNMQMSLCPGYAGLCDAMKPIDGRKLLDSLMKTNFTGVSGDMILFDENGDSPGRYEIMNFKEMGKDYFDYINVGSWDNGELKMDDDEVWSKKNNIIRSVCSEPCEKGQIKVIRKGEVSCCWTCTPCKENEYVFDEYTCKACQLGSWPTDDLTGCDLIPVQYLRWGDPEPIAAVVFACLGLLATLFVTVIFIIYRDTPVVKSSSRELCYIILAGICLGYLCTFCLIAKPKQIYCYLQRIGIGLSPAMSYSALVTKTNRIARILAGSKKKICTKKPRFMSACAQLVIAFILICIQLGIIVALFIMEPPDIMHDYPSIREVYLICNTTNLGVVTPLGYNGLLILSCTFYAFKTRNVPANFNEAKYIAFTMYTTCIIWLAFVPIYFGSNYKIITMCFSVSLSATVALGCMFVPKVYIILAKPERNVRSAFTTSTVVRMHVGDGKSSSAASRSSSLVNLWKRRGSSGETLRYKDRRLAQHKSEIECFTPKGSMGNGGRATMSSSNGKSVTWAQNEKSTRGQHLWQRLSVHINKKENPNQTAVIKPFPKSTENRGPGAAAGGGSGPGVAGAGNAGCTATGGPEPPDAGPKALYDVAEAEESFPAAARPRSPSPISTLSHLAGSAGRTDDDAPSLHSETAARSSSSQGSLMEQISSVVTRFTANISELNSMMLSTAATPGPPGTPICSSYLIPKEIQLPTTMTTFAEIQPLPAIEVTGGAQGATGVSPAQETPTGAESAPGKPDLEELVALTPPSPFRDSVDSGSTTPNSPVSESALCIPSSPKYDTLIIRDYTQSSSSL

[4] = target: Metabotropic glutamate receptor 5 (Rattus norvegicus) (UniProt P31424); test: Negative allosteric modulation of rat mGluR5 expressed in HEK293 cells assessed as calcium mobilization at 30 uM by calcium mobilization assay relative to 100 uM glutamate; type: functional, cell-based
Metabotropic glutamate receptor 5 (Rattus norvegicus), sequence (P31424 21-1203 limits assumed): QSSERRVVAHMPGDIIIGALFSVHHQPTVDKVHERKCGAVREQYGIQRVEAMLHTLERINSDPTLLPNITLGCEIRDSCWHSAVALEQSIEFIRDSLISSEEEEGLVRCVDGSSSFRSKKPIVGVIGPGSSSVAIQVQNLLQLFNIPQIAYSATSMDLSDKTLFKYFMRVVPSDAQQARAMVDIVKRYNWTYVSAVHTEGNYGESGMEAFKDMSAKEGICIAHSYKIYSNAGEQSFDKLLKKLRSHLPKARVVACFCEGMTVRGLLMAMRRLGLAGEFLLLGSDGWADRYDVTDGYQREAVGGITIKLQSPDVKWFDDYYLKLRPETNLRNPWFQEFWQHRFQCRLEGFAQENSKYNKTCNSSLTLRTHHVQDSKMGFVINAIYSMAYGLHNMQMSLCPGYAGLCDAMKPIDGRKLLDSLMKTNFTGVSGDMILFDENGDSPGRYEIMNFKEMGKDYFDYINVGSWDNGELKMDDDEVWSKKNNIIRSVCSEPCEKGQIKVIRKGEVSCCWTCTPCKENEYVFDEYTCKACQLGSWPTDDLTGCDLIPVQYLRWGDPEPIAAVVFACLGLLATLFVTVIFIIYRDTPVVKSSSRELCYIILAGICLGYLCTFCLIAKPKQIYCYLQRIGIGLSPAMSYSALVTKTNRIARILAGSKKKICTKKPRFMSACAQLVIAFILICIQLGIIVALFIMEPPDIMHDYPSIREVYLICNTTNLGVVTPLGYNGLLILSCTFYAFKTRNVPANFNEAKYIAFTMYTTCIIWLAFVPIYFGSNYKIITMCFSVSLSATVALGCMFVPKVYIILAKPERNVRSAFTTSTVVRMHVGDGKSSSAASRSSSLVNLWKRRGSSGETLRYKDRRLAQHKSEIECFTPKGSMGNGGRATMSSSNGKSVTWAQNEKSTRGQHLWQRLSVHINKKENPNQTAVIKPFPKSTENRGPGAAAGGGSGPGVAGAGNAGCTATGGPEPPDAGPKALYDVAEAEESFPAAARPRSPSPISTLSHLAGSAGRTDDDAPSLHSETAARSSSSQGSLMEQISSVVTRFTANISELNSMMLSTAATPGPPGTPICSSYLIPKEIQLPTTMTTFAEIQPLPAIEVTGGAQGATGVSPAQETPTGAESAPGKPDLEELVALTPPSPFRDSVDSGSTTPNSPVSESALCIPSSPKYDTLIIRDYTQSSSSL

[5] = target: Metabotropic glutamate receptor 8 (Rattus norvegicus) (UniProt P70579); test: Activity at rat mGluR8 expressed in HEK293-GIRK cells assessed as effect on glutamate-induced response by thallium flux assay; type: cell-based
Rattus norvegicus = species on record: Rattus norvegicus; test: Inhibition of rat brain sodium channel, site 2 at 10 uM by radioligand binding assay
[6] = target: Sodium-dependent noradrenaline transporter (Homo sapiens) (UniProt P23975); test: Inhibition of recombinant human norepinephrine transporter expressed in MDCK cells at 10 uM by radioligand binding assay; type: cell-based
Plasma = test: Fraction unbound in rat plasma by equilibrium dialysis assay; type: ADME, cell-free
[7] = target: TRAF2 and NCK-interacting protein kinase (Homo sapiens) (UniProt Q9UKE5); test: Inhibition of human TNIK at 10 uM
[8] = AUC in Sprague-Dawley rat at 10 mg/kg, ip; type: ADME, organism-based; conditions: in vivo
[9] = target: SRSF protein kinase 2 (Homo sapiens) (UniProt P78362); test: Inhibition of human SRPK2 at 10 uM
[10] = Half life in Sprague-Dawley rat at 0.2 mg/kg, iv; type: ADME, organism-based; conditions: in vivo
Cytochrome P450 1A2 = Cytochrome P450 1A2 (Homo sapiens, UniProt P05177); test: Inhibition of CYP1A2 in human liver microsomes in presence of NADPH; type: ADME
[11] = target: Metabotropic glutamate receptor 2 (Rattus norvegicus) (UniProt P31421); test: Activity at rat mGluR2 expressed in HEK293-GIRK cells assessed as effect on glutamate-induced response by thallium flux assay; type: cell-based
[12] = Cmax in Sprague-Dawley rat at 10 mg/kg, ip; type: ADME, organism-based; set-up: dose 10 mg/kg, route intraperitoneal; conditions: in vivo
[13] = Plasma clearance in Sprague-Dawley rat at 0.2 mg/kg, iv; type: ADME, organism-based
[14] = AUC in CD-1 mouse at 30 mg/kg, ip; type: ADME, organism-based; conditions: in vivo
[15] = target: Casein kinase I isoform epsilon (Homo sapiens) (UniProt P49674); test: Inhibition of human CK1epsilon at 10 uM
[16] = target: Casein kinase I isoform delta (Homo sapiens) (UniProt P48730); test: Inhibition of human CK1delta at 10 uM
[17] = Tmax in Sprague-Dawley rat at 10 mg/kg, ip; type: ADME, organism-based; conditions: in vivo
[18] = Ratio of drug level in brain to plasma of rat at 0.2 mg/kg measured at 15 mins post dose; type: ADME, organism-based; conditions: 0.25 h
[19] = target: Adenosine receptor A3 (Homo sapiens) (UniProt P0DMS8); test: Inhibition of recombinant human Adenosine A3 receptor expressed in CHOK1 cells at 10 uM by radioligand binding assay; conditions: CHO-K1
[20] = target: Casein kinase I isoform gamma-2 (Homo sapiens) (UniProt P78368); test: Inhibition of human CK1gamma2 at 10 uM
[21] = Ratio of drug level in brain to plasma of CD-1 mouse at 30 mg/kg measured at 30 mins post dose; type: ADME, organism-based; conditions: 0.5 h
[22] = Tmax in CD-1 mouse at 30 mg/kg, ip; type: ADME, organism-based; conditions: in vivo
[23] = target: Metabotropic glutamate receptor 7 (Rattus norvegicus) (UniProt P35400); test: Activity at rat mGluR7 expressed in HEK293-GIRK cells assessed as effect on glutamate-induced response by thallium flux assay; type: cell-based
[24] = target: SRSF protein kinase 1 (Homo sapiens) (UniProt Q96SB4); test: Inhibition of human SRPK1 at 10 uM
[25] = Fraction unbound in mouse plasma by equilibrium dialysis assay; type: ADME, cell-free
[26] = target: 5-hydroxytryptamine receptor 2B (Homo sapiens) (UniProt P41595); test: Inhibition of recombinant human 5-HT2B receptor expressed in CHOK1 cells at 10 uM by radioligand binding assay; type: cell-based; conditions: CHO-K1
Cytochrome P450 2D6 = Cytochrome P450 2D6 (Homo sapiens, UniProt P10635); test: Inhibition of CYP2D6 in human liver microsomes in presence of NADPH; type: ADME
[27] = target: Metabotropic glutamate receptor 4 (Rattus norvegicus) (UniProt P31423); test: Activity at rat mGluR4 expressed in HEK293-GIRK cells assessed as effect on glutamate-induced response by thallium flux assay; type: cell-based
[28] = target: Metabotropic glutamate receptor 6 (Rattus norvegicus) (UniProt P35349); test: Activity at rat mGluR6 expressed in HEK293-GIRK cells assessed as effect on glutamate-induced response by thallium flux assay; type: cell-based
[29] = Cmax in CD-1 mouse at 30 mg/kg, ip; type: ADME, organism-based; set-up: dose 30 mg/kg, route intraperitoneal; conditions: in vivo
Cytochrome P450 2C9 = Cytochrome P450 2C9 (Homo sapiens, UniProt P11712); test: Inhibition of CYP2C9 in human liver microsomes in presence of NADPH; type: ADME
Cytochrome P450 3A4 = Cytochrome P450 3A4 (Homo sapiens, UniProt P08684); test: Inhibition of CYP3A4 in human liver microsomes in presence of NADPH; type: ADME
[30] = target: Adenosine receptor A1 (Homo sapiens) (UniProt P30542); test: Inhibition of recombinant human Adenosine A1 receptor expressed in CHO cells at 10 uM by radioligand binding assay; type: cell-based
[31] = Fraction unbound in rat brain by equilibrium dialysis assay; type: ADME, tissue-based
[32] = Unbound brain to plasma ratio in rat at 0.2 mg/kg measured at 15 mins post dose; type: ADME, organism-based; conditions: 0.25 h
[33] = Fraction unbound in mouse brain by equilibrium dialysis assay; type: ADME, tissue-based
[34] = target: Serine/threonine-protein kinase 17A (Homo sapiens) (UniProt Q9UEE5); test: Inhibition of human DRAK1 at 10 uM
[35] = target: Casein kinase I isoform alpha (Homo sapiens) (UniProt P48729); test: Inhibition of human CK1alpha1 at 10 uM
Casein kinase I isoform alpha (Homo sapiens), sequence (P48729 2-337 limits assumed): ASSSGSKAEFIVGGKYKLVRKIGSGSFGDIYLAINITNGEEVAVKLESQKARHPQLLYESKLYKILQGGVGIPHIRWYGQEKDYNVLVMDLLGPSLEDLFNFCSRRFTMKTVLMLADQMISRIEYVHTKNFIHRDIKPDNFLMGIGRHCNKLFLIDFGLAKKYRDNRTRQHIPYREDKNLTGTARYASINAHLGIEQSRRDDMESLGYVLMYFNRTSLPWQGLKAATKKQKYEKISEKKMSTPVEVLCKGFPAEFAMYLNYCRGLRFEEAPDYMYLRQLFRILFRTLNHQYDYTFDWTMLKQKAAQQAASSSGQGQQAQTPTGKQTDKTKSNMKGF

[36] = Unbound brain to plasma ratio in CD-1 mouse at 30 mg/kg, ip measured at 30 mins post dose; type: ADME, organism-based; conditions: 0.5 h
[37] = target: Adenosine receptor A2a (Homo sapiens) (UniProt P29274); test: Inhibition of recombinant human Adenosine A2A receptor expressed in HEK293 cells at 10 uM by radioligand binding assay; type: cell-based
[38] = target: Metabotropic glutamate receptor 3 (Rattus norvegicus) (UniProt P31422); test: Activity at rat mGluR3 expressed in HEK293-GIRK cells assessed as effect on glutamate-induced response by thallium flux assay; type: cell-based

CCC(C)(C)Nc1ncnc2c1nn1ccccc21
%max [1]: 12.6% | IC50 [2]: > 10 µM | IC50 ([3]; read-out: IC50): > 30 µM | IC50 ([3]; read-out: pIC50 (converted)): > 31.6 µM

FC1(F)CCC(Nc2ncnc3c2nn2ccccc32)CC1
%max [1]: 39% | IC50 [2]: > 10 µM | IC50 ([3]; read-out: IC50): > 30 µM | IC50 ([3]; read-out: pIC50 (converted)): > 31.6 µM

CNc1nc(N[C@H]2CC[C@H](C)CC2)c2nn3ccccc3c2n1
IC50 [2]: > 30 µM | IC50 ([3]; read-out: IC50): > 30 µM | IC50 ([3]; read-out: pIC50 (converted)): > 31.6 µM

C[C@@H]1[C@@H](Nc2ncnc3c2nn2ccccc32)C[C@H]2C[C@@H]1C2(C)C
%max [4]: 2.3% | %max [1]: 3.1% | IC50 [2]: 0.233 µM | IC50 ([3]; read-out: IC50): 2.09 µM

Cc1nc(N[C@H]2CC[C@H](C)CC2)c2nn3ccccc3c2n1
%max [1]: 2.6% | IC50 ([3]; read-out: IC50): > 30 µM | IC50 ([3]; read-out: pIC50 (converted)): > 31.6 µM

C[C@@H](Nc1ncnc2c1nn1ccccc21)C(C)(C)C
%max [1]: 2.2% | IC50 ([3]; read-out: IC50): > 30 µM | IC50 ([3]; read-out: pIC50 (converted)): > 31.6 µM

c1ccn2nc3c(NC4C5CC6CC(C5)CC4C6)ncnc3c2c1 (configuration not stated)
%max [4]: 3.4% | %max [1]: 2.9% | IC50 [2]: 0.084 µM | IC50 ([3]; read-out: IC50): 1.75 µM

C[C@H](Nc1ncnc2c1nn1ccccc21)C(C)(C)C
%max [1]: -0.2% | IC50 ([3]; read-out: IC50): > 30 µM | IC50 ([3]; read-out: pIC50 (converted)): > 31.6 µM

CN(C)c1nc(N[C@H]2CC[C@H](C)CC2)c2nn3ccccc3c2n1
IC50 [2]: > 30 µM | IC50 ([3]; read-out: IC50): > 30 µM | IC50 ([3]; read-out: pIC50 (converted)): > 31.6 µM

C[C@H]1CC[C@H](Nc2ncnc3c2nn2ccccc32)CC1
%max [4]: 2% | %max [1]: 2% | IC50 [2]: 0.093 µM | IC50 ([3]; read-out: IC50): 2.27 µM

CC1(C)[C@@H]2CC[C@]1(C)[C@@H](Nc1ncnc3c1nn1ccccc31)C2
%max [1]: 7.1% | IC50 ([3]; read-out: IC50): > 30 µM | IC50 ([3]; read-out: pIC50 (converted)): > 31.6 µM

CC(C)(C)CCNc1ncnc2c1nn1ccccc21
%max [4]: 1.3% | %max [1]: 1.5% | IC50 [2]: 0.341 µM | IC50 ([3]; read-out: IC50): 3.6 µM

c1ccn2nc3c(NC4CCCCC4)ncnc3c2c1
%max [1]: -0.5% | IC50 ([3]; read-out: IC50): > 30 µM | IC50 ([3]; read-out: pIC50 (converted)): > 31.6 µM

COCCNc1nc(N[C@H]2CC[C@H](C)CC2)c2nn3ccccc3c2n1
IC50 [2]: > 30 µM | IC50 ([3]; read-out: IC50): > 30 µM | IC50 ([3]; read-out: pIC50 (converted)): > 31.6 µM

CC1(C)CCC(Nc2ncnc3c2nn2ccccc32)CC1
Activity [5]: inactive | inhibition (Rattus norvegicus): 55% | inhibition [6]: 65% | Fu (Plasma): 0.037 | inhibition [7]: 58.8% | AUC [8]: 3.23 µM·h | inhibition [9]: 75.2% | half-life [10]: 34 min | IC50 (Cytochrome P450 1A2): 9.6 µM | Activity [11]: inactive | Cmax [12]: 2300 nM | clearance [13]: 98 mL/min/kg | AUC [14]: 2.86 µM·h | %max [4]: 1.6% | inhibition [15]: 75.9% | inhibition [16]: 85.1% | Tmax [17]: 15 min | Kp [18]: 5.3 | inhibition [19]: 63% | inhibition [20]: 50.4% | Kp [21]: 3.3 | Tmax [22]: 20 min | Activity [23]: inactive | inhibition [24]: 79.4% | Fu [25]: 0.025 | inhibition [26]: 65% | IC50 (Cytochrome P450 2D6): > 30 µM | Activity [27]: inactive | Activity [28]: inactive | %max [1]: 2.9% | Cmax [29]: 3000 nM | IC50 (Cytochrome P450 2C9): > 30 µM | IC50 (Cytochrome P450 3A4): > 30 µM | IC50 [2]: 0.069 µM | inhibition [30]: 92% | fraction unbound [31]: 0.008 | IC50 ([3]; read-out: IC50): 0.129 µM | K(p,uu,brain) [32]: 1.1 | fraction unbound [33]: 0.01 | inhibition [34]: 52.9% | inhibition [35]: 65.3% | K(p,uu,brain) [36]: 1.3 | inhibition [37]: 94% | Activity [38]: inactive

C[C@@H]1[C@H]2C[C@@H](C[C@H]1Nc1ncnc3c1nn1ccccc31)C2(C)C
%max [4]: 9% | %max [1]: 2.7% | IC50 [2]: 0.152 µM | IC50 ([3]; hek293, read-out: IC50): > 10 µM | IC50 ([3]; read-out: pIC50 (converted)): > 10 µM
